For one compound, KD results are on record in publication PMC12335538 (2025).

The assay has as its system 62 CA8 (RNA, riboswitch) GGAGACCGAAAGCUGGGGACGACCCCAGAAAGACCAAAAGCUGGGGACGACCCCAGAAAGACCGA
The assay can be described thus: in-line probing. To be noted: 20 mM MgCl2, 100 mM KCl; 50 mM Tris pH 8.3, room temperature, 48 h; apparent; mean of three replicates; Hill 1.50 ± 0.3.

As for `N=C(N)N`, the KD is 111 ± 3 µM.
